{"source": "paper PMC12677699", "about": "“Utilizing Proteolytic‐Resistant Nano‐Short Peptide Based on Naphthyl Tail‐Anchored to Combat Bacterial Infections” (Advanced Science, 2025)", "key": {"[1]": {"system": "clinically isolated strains", "assay": "MIC against clinically isolated strains (panel)", "format": "cell-based", "details": "all four clinical strains of Figure 4G", "method": "The MIC values of the nano‐short peptides were determined according to standard protocols.^[ [63] ^] Bacterial strains were revived from cryopreservation and cultured in Mueller–Hinton broth (MHB) to logarithmic growth phase, then diluted to a final density of 0.5–1 × 10⁶ CFU mL^−1. Serial dilutions of the nano‐short peptides were prepared in 0.2% bovine serum albumin (BSA) using a 96‐well plate format. Equal volumes of peptide solutions and bacterial suspensions were combined and incubated at 37 °C for 20–22 h. Bacterial growth was assessed by measuring absorbance at 492 nm, with MHB alone (negative control) and untreated bacterial suspension (positive control) included for reference."}, "S. aureus ATCC 29213 [2]": {"system": "S. aureus ATCC 29213", "assay": "Flow cytometry, PI", "format": "cell-based, Staphylococcus aureus", "details": "16 × 10^−6 M N4, 1 h, control 1.23%", "method": "The bacterial samples were incubated with N4 for 1 h and then incubated with the PI dye (at a final concentration of 10 µg mL^−1) for a further 15 min. Finally, bacteria containing PI dye were detected by FACScan flow cytometer at 488 nm excitation wavelength, bacterial solutions (containing PI dye) without N4 treatment were used as controls."}, "S. aureus ATCC 29213 [3]": {"system": "S. aureus ATCC 29213", "assay": "Live/dead staining, PI and SYTO 9", "format": "cell-based, Staphylococcus aureus", "from_the_text": "Finally, a fluorescence microscope (EVOS FL Auto, Massachusetts, USA) was used to observe the fluorescence images of the bacteria under different background colors and representative pictures were taken."}, "E. coli ATCC 25922 [4]": {"system": "E. coli ATCC 25922", "assay": "Time-kill kinetics", "format": "cell-based, Escherichia coli", "details": "1 × MIC, PBS pH 7.4; n = 3", "method": "Samples were collected at pre‐determined time points post‐exposure, serially diluted, and plated on Mueller‐Hinton agar (MHA) for viable colony counting after 18–24 h incubation at 37 °C. Untreated bacterial suspensions served as controls."}, "E. coli": {"system": "E. coli", "assay": "In vivo peritonitis-sepsis model", "design": "species or system mouse", "details": "14 h, n = 8", "method": "The mice used in the peritonitis‐sepsis model were consistent with those employed in the in vivo toxicity assessment. Twenty‐four mice were randomly divided into three groups after a 3‐day pre‐feeding period. The mice in the control group received intraperitoneal injections of 100 µL of saline, followed by an additional 100 µL of saline 1 h later. The mice in the other two groups were administered intraperitoneal injections of 100 µL of a saline‐diluted E. coli suspension (OD600 = 0.6), and subsequently received either 100 µL of saline (E. coli‐infected group) or 10 mg kg^−1 of N4(N4‐treated group) 1 h later. 14 h post‐infection, the mice were euthanized via ether inhalation anesthesia, and blood samples were collected from the orbital vein for the analysis of inflammatory factors (IL‐1β, IL‐6, TNF‐α, and IL‐10).^[ [71] ^] In addition, peritoneal fluid was aseptically collected via peritoneal lavage with sterile saline. The liver, spleen, and kidneys were harvested, weighed, and homogenized. Homogenized samples were plated on Mueller‐Hinton agar (MHA) solid medium for overnight incubation, and bacterial load was quantified the next day. Sections of the liver, spleen, and kidneys were obtained for histological analysis employing H&E staining. Besides, the spleens were specifically selected for immunofluorescence analysis to assess the expression levels of IL‐10, TNF‐α, CD206, and CD86."}, "E. coli ATCC 25922 [5]": {"system": "E. coli ATCC 25922", "assay": "Cytoplasmic membrane permeability, ONPG hydrolysis", "format": "cell-based, Escherichia coli", "details": "within 1800 s", "from_the_text": "The ONPG hydrolysis assay was employed to determine the effects of nano‐short peptides on permeability of E. coli ATCC 25922 cytoplasmic membranes. The detailed experimental procedures followed the previously published methodology.^[ [30] ^]"}, "E. coli ATCC 25922 [6]": {"system": "E. coli ATCC 25922", "assay": "Intracellular ATP determination", "format": "cell-based, Escherichia coli", "details": "16 × 10^−6 M, E. coli ATCC 25922, 1 h, 37 °C; n = 3", "method": "The intracellular ATP levels of E. coli ATCC 25922 and S. aureus ATCC 29213 after nano‐short peptides treatment were detected using an Enhanced ATP Assay Kit.^[ [59] ^] Logarithmic growth stage E. coli ATCC 25922 and S. aureus ATCC 29213 bacterial solutions were diluted to OD600 = 0.4 in MHB liquid medium. Then, the bacterial dilutions were co‐incubated with different concentrations of nano‐short peptides at 37 °C for 1 h. After incubation, the bacterial dilutions were centrifuged (12 000 rpm, 5 min, 4 °C) to pellet the cells. The resulting bacterial pellets were processed according to the steps in the kit. Finally, the chemiluminescence was detected by a microplate reader."}, "[7]": {"assay": "Dynamic light scattering and zeta potential", "format": "physicochemical", "details": "16 × 10^−6 M in deionized water; n = 3", "method": "N4 was diluted to 16 × 10^−6 M using deionized water and added to disposable plastic cuvettes, and the kinetic diameters was determined using a Zetasizer Nano Z90 (Malvern Instruments, Worcestershire, U.K.).^[ [29] ^] N4 was diluted to 16 × 10^−6 M using deionized water and added to the electrode cups, and the zeta potential was determined using a Zetasizer Nano Z90 (Malvern Instruments, Worcestershire, UK).^[ [29] ^]"}, "E. coli ATCC 25922 [8]": {"system": "E. coli ATCC 25922", "assay": "Drug resistance assay, 30 serial passages", "format": "cell-based, Escherichia coli", "details": "E. coli ATCC 25922, 30 successive passages at sub-MIC concentrations", "method": "The potential resistance development of nano‐short peptides was evaluated through 30 serial passages of E. coli ATCC 25922 and S. aureus ATCC 29213 in sub‐MIC conditions,^[ [38] ^] using gentamicin as control."}, "[9]": {"assay": "Critical aggregation concentration, 1,8-ANS fluorescence", "format": "physicochemical", "details": "1,8-ANS 1 × 10^−6 M, peptide 2-256 × 10^−6 M in deionized water, 1 h, ex 360 nm, em 420–670 nm, linear fitting of fluorescence intensities", "method": "The self‐assembly behavior of nano‐short peptides was characterized by determining the CAC using 1,8‐ANS as a hydrophobic fluorescent probe.^[ [32] ^] Serial peptide dilutions (2‐256 × 10^−6 M in 50 µL deionized water) were prepared in 96‐well plates. 1,8‐ANS powder was solubilized in dimethylformamide (DMF) and added to the 96‐well plates (final concentration of 1 × 10^−6 M), and deionized water solution containing 1,8‐ANS was used as a blank control. After incubation for 1 h, the fluorescence emission spectra were continuously monitored with a microplate reader (Tecan Infinite200 Pro, λ excitation = 360 nm, λ emission = 420–670 nm). CAC values were determined by linear fitting of representative fluorescence intensities."}, "[10]": {"details": "N4 10 mg kg^−1 i.p., vs infected group, p < 0.05"}}, "data": [{"smiles": "N=C(N)NCCC[C@H](NC(=O)[C@@H](CCCNC(=N)N)NC(=O)[C@H](Cc1cccc2ccccc12)NC(=O)[C@H](Cc1cccc2ccccc12)NC(=O)[C@H](Cc1cccc2ccccc12)NC(=O)[C@@H](N)Cc1cccc2ccccc12)C(=O)N[C@@H](CCCNC(=N)N)C(=O)N1CCC[C@H]1C(=O)O", "note": "(stereo in doubt) [Peptide N4]", "values": [{"measurement": "MIC values against clinically isolated strains", "setting": "[1]", "result": "≤ 16", "unit": "µM"}, {"measurement": "PI-positive proportion", "setting": "S. aureus ATCC 29213 [2]", "result": 36.7, "unit": "%"}, {"measurement": "red (PI)/green (SYTO 9) fluorescence overlap rate", "setting": "S. aureus ATCC 29213 [3]; 16 × 10^−6 M N4, S. aureus ATCC 29213, ImageJ", "result": 90.74, "unit": "%"}, {"measurement": "red (PI)/green (SYTO 9) fluorescence overlap rate", "setting": "S. aureus ATCC 29213 [3]; 256 × 10^−6 M N4, S. aureus ATCC 29213, ImageJ", "result": 98.65, "unit": "%"}, {"measurement": "time to eliminate all E. coli ATCC 25922 cells", "setting": "E. coli ATCC 25922 [4]", "result": "≤ 1500", "unit": "s"}, {"measurement": "bacterial load, kidney", "setting": "E. coli; E. coli peritonitis-sepsis, N4 10 mg kg^−1 i.p. 1 h after infection, infected group 6.62", "result": 5.96, "unit": "log10 CFU g^−1"}, {"measurement": "bacterial load, liver", "setting": "E. coli; E. coli peritonitis-sepsis, N4 10 mg kg^−1 i.p. 1 h after infection, infected group 6.87", "result": 6.07, "unit": "log10 CFU g^−1"}, {"measurement": "bacterial load, spleen", "setting": "E. coli; E. coli peritonitis-sepsis, N4 10 mg kg^−1 i.p. 1 h after infection, infected group 6.97", "result": 6.28, "unit": "log10 CFU g^−1"}, {"measurement": "bacterial load, peritoneum", "setting": "E. coli; E. coli peritonitis-sepsis, N4 10 mg kg^−1 i.p. 1 h after infection, infected group 7.48", "result": 6.37, "unit": "log10 CFU"}, {"measurement": "serum levels of anti-inflammatory cytokine IL-10", "setting": "E. coli; [10]", "result": "increased"}, {"measurement": "serum levels of pro-inflammatory cytokines (IL-1β, IL-6, TNF-α)", "setting": "E. coli; [10]", "result": "significant decreased"}, {"measurement": "increase in absorbance at 420 nm (ONPG hydrolysis)", "setting": "E. coli ATCC 25922 [5]; 8 μM", "result": "approximately 2 fold"}, {"measurement": "increase in absorbance at 420 nm (ONPG hydrolysis)", "setting": "E. coli ATCC 25922 [5]; 16 μM", "result": "~5", "unit": "fold"}, {"measurement": "ATP levels decreased to", "setting": "E. coli ATCC 25922 [6]", "result": 66.07, "unit": "%"}, {"measurement": "zeta potential", "setting": "[7]", "result": 6.99, "unit": "mV"}, {"measurement": "increase in MIC values after serial passage", "setting": "E. coli ATCC 25922 [8]", "result": "remained largely unchanged"}, {"measurement": "critical aggregation concentration (CAC)", "setting": "[9]", "result": 5.78, "unit": "µM"}]}]}
